Tests used:
[1] = target: human GABAA α2β2γ1 receptor (Homo sapiens (Human), UniProt P47869+Q8N1C3); assay: Radioligand binding assay for γ1-containing GABAA subtypes, [3H]RO7239181 competition (α2β2γ1)
[2] = target: human GABAA α1β2γ1 receptor (Homo sapiens (Human), UniProt P14867+Q8N1C3); assay: Radioligand binding assay for γ1-containing GABAA subtypes, [3H]RO7239181 competition (α1β2γ1)
Description: The affinity of compounds at GABAA γ1 subunit-containing receptors was measured by competition for [^3H]RO7239181 (67.3 Ci/mmol; Roche) binding to membranes from HEK293F cells (ThermoFisher R79007) expressing human (transiently transfected) receptors of composition α5β2γ1, α2β2γ1, α1β2γ1.
Harvested pellets from HEK293F cells expressing the different GABAA receptor subtypes were resuspended in Mannitol Buffer pH 7.2-7.4 (Mannitol 0.29 M, Triethylamine 10 mM, Acetic acid 10 mM, EDTA 1 mM plus protease inhibitors (20 tablets Complete, Roche Diagnostics Cat. No. 05 056 489 001 per liter)), washed two times and then resuspended at 1:10 to 1:15 dilution in the same buffer. Cell disruption was performed by stirring the suspension in a Parr vessel #4637 at 435 psi for 15 minutes, and then the suspensions were centrifuged at 1000×g for 15 minutes at 4° C. (Beckman Avanti J-HC; rotor JS-4.2). The supernatant (S1) was transferred in a 2 l Schott flask and the pellet (P1) was resuspended with Mannitol Buffer up to 175 ml. The resuspended pellet was transferred into a 250 ml Corning centrifugal beaker and centrifuged at 1500×g for 10 minutes at 4° C. (Beckman Avanti J-HC; rotor JS-4.2). The supernatant (S1) was then transferred in the 2 l Schott flask and the pellet was discarded. The supernatants (S1) were centrifuged in 500 ml Beckman polypropylene centrifugal beaker at 15′000×g for 30 minutes at 4° C. (Beckman Avanti J-20 XP; rotor JLA-10.500). The pellet (P2) was resuspended with Mannitol Buffer 1:1 and frozen at −80° C. The supernatant (S2) was centrifuged in 100 ml Beckman polypropylene centrifugal tubes at 48000×g for 50 minutes at 4° C. (Beckman Avanti J-20 XP; rotor JA-18). The supernatant (S3) was discarded and the pellet (P3) was resuspended with 1:1 Mannitol Buffer. The P2 and P3 protein concentration was determined with the BIORAD Standard assay method with bovine serum albumin as standard and measured on the NANO-Drop 1000. The membrane suspension was aliquots (500 μl per tube) and stored at −80° C. until required.
Membrane homogenates were resuspended and polytronised (Polytron PT1200E Kinematica AG) in Potassium Phosphate 10 mM, KCl 100 mM binding buffer at pH 7.4 to a final assay concentration determined with a previous experiment.
Assays were incubated to equilibrium for 1 hour at 4° C. and then, membranes were filtered onto unifilter (96-well white microplate with bonded GF/C filters preincubated 20-50 minutes in 0.3% Polyethylenimine) with a Filtermate 196 harvester (Packard BioScience) and washed 4 times with cold Potassium Phosphate 10 mM pH 7.4, KCl 100 mM binding buffer. After anhydrousing, filter-retained radioactivity was detected by liquid scintillation counting. Ki values were calculated using Excel-Fit (Microsoft) and are the means of two determinations.

[3] = target: α2β2γ1 GABAA receptor subtype (Homo sapiens (Human), UniProt P47869+Q8N1C3); assay: Two-electrode voltage clamp electrophysiology in Xenopus oocytes expressing GABAA receptors (modulation of GABA EC20 current); type: cell-based; details: for Efficacy (GABA)%: % modulation of GABA EC20 = 100*(Fold increase-1), α2β2γ1 oocytes, compound at approx. 30-fold Ki; for Fold increase h-GABA-A α2β2γ1 oocyte @ 30-fold Ki: Xenopus oocytes expressing α2β2γ1, compound at approx. 30-fold its Ki α2β2γ1, GABA EC20 current
How it was run: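 Each concentration was tested on ≥3 oocytes held at −80 mV at room temperature, recorded 3-5 days post-injection. A control and a test response to EC20 GABA (1.5 min each) were superimposed and their point-by-point ratio taken. Peak ratio reported as % modulation of GABA EC20 = 100×(fold increase−1).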

[4] = target: human GABAA α5β2γ1 receptor (Homo sapiens (Human), UniProt P31644+Q8N1C3); assay: Radioligand binding assay for γ1-containing GABAA subtypes, [3H]RO7239181 competition (α5β2γ1)
[5] = target: human GABAA α1β3γ2 receptor (Homo sapiens (Human), UniProt P14867+P18507); assay: Radioligand binding assay for γ2-containing GABAA subtypes, [3H]Flumazenil competition (α1β3γ2); details: for γ2/γ1 Selectivity Ratio: Ki α1β3γ2 (nM)/Ki α2β2γ1 (nM); for LogSel: Log[Ki α1β3γ2 (nM)/Ki α2β2γ1 (nM)]
[6] = Ki h-GABAA α2β2γ1, [3H]RO7239181 competition binding, human GABAA α2β2γ1
[7] = Ki h-GABAA α2β2γ1, displacement of [3H]RO7239181, membranes of HEK293F cells expressing human receptors, means of two determinations

Row | SMILES | Ki [1, 6] [nM] | Ki [1, 7] [nM] | Ki [2] [nM] | Efficacy (GABA)% [3] [%] | Fold increase h-GABA-A α2β2γ1 oocyte @ 30-fold Ki [3] | Ki [4] [nM] | Ki [5] [nM] | γ2/γ1 Selectivity Ratio [5] | LogSel [5]
1 | C[C@@H]1N=C(c2c(F)cccc2F)c2c(ccc(C(F)(F)F)c2Cl)-n2nc(C(=O)N3CCC3)nc21 [Example 26, azetidin-1-yl-[(4S)-7-chloro-6-(2,6-difluorophenyl)-4-methyl-8-(trifluoromethyl)-4H-[1,2,4]triazolo[1,5-a][1,4]benzodiazepin-2-yl]methanone] | 8.6 | 8.6 | 38.1 | 75 | 1.75 | 2.48 | 1840 | 213.1 | 2.33
2 | CCOC1CN(C(=O)c2nc3n(n2)-c2ccc(C(F)(F)F)c(Cl)c2C(c2ncccc2F)=N[C@H]3C)C1 [Example 137, [(4S)-7-chloro-6-(3-fluoro-2-pyridyl)-4-methyl-8-(trifluoromethyl)-4H-[1,2,4]triazolo[1,5-a][1,4]benzodiazepin-2-yl]-(3-ethoxyazetidin-1-yl)methanone] | 42.6 | 42.6 | 130 | 129 | 2.29 | 6.58 | 10500 | 246.0 | 2.39
3 | C[C@@H]1N=C(c2c(F)cccc2F)c2c(ccc(C(F)(F)F)c2Cl)-n2nc(C(=O)N3CC(O)C3)nc21 [Example 58, (3-hydroxyazetidin-1-yl)-[(4S)-7-chloro-6-(2,6-difluorophenyl)-4-methyl-8-(trifluoromethyl)-4H-[1,2,4]triazolo[1,5-a][1,4]benzodiazepin-2-yl]methanone] | 7 | 7 | 23.9 | 112 | 2.12 | 2.3 | 1090 | 156.8 | 2.20
4 | C[C@@H]1N=C(c2c(F)cccc2F)c2c(ccc(Cl)c2Cl)-n2nc(C(=O)N3CCS(=O)(=O)CC3)nc21 [Example 36, [(4S)-7,8-dichloro-6-(2,6-difluorophenyl)-4-methyl-4H-[1,2,4]triazolo[1,5-a][1,4]benzodiazepin-2-yl]-(1,1-dioxo-1,4-thiazinan-4-yl)methanone] | 3.5 | 3.46 | 8.25 | 71 | 1.71 | 0.95 | 778 | 224.7 | 2.35
5 | C[C@@H]1N=C(c2c(F)cccc2F)c2c(ccc(Cl)c2Cl)-n2nc(C(=O)NCCO)nc21 [Example 54, (4S)-7,8-dichloro-6-(2,6-difluorophenyl)-N-(2-hydroxyethyl)-4-methyl-4H-[1,2,4]triazolo[1,5-a][1,4]benzodiazepine-2-carboxamide] | 4.4 | 4.38 | 15.2 | 80 | 1.80 | 0.97 | 581 | 132.7 | 2.12

Source: patent US12365687B2 (Hoffmann-La Roche Inc., priority 2021, dated 2025)
